Measured values: EP4806435A1, “DIHYDROCHROMENE-DERIVATIVE-CONTAINING THERAPEUTIC AGENT FOR CANCER” (Sumitomo Pharma Co., Ltd., priority 2023, dated 2025)

Experiments:
[1] = test system: recurrent malignant glioma classified as WHO grade III or IV; assay: Phase 1 clinical trial: preliminary antitumor activity (RANO criteria); type: in vivo, human
Procedure: Each treatment cycle was defined as 28 days, during which safety and treatment response were evaluated. Administration to each subject was continued until unacceptable toxicity occurred, consent was withdrawn, the subject was lost to follow-up, or discontinuation was determined by the investigator and/or the sponsor.

[2] = test system: luciferase-expressing U-87 cells; assay: In vivo efficacy, combination with bevacizumab, orthotopic brain tumor (IVIS imaging); settings: Compound 1 10 mg/kg twice daily (once daily from day 30) + bevacizumab 1 mg/kg twice weekly; brain tumors in immunodeficient mice
Procedure: Luciferase-expressing U-87 cells, in which the luminescent enzyme luciferase was forcibly expressed, were established (obtained from ATCC (American Type Culture Collection)). 1 x 10^6 of these cells were implanted into the brains of immunodeficient mice to establish brain tumors. On day 18 after tumor cell implantation, administration was initiated with Compound 1 at 10 mg/kg (twice daily) and bevacizumab at 1 mg/kg (twice weekly). On day 30, the dosing frequency of Compound 1 was reduced to once daily. The efficacy of each monotherapy and the combination therapy was evaluated by quantifying orthotopic tumor progression using an IVIS Imaging System and comparing the results.

[3] = test system: B16 cells; assay: Efficacy in anti-PD-1 antibody-resistant in vivo model; set-up: species or system C57BL/6J mice; settings: 10 mg/kg, once daily; B16 intradermal; versus nivolumab 5 mg/kg once weekly
Procedure: B16 cells (5 x 10^5 cells; obtained from the JCRB Cell Bank) were intradermally implanted into C57BL/6J mice to establish tumors. On day 12 after implantation, administration of Compound 1 (10 mg/kg, once daily) or an anti-PD-1 antibody (nivolumab, 5 mg/kg, once weekly) was initiated, and the efficacy of each monotherapy group was compared with that of the control group.

[4] = test system: IDH1 R132H mutant U-87 cells; assay: Cytotoxicity assay, sphere culture with LDL supplementation (ATP); type: cell-based, human; settings: 1 µM; 7 days sphere culture; LDL 5 µg/mL
Procedure: U-87 cells were established with a tetracycline-inducible IDH1 R132H mutation expression system. The cells were cultured in the presence of doxycycline (1 µM), a tetracycline derivative, for 5 days to induce the IDH1 R132H mutation. After induction of the mutation, the cells were transferred to sphere culture medium (containing B-27 supplement, epidermal growth factor, cell proliferation factors, insulin, and low-density lipoprotein [LDL]), and cultured for 7 days under sphere-forming conditions after the addition of Compound 1 (1 µM). The LDL concentration in the medium was 5 µg/mL. After incubation, cellular ATP levels were quantified as an indicator of cell viability, and cell viability was calculated as the ratio relative to ATP levels under vehicle-only conditions. Using this approach, the cytotoxic effects of the present compound under LDL-supplemented conditions were compared between wild-type (doxycycline-) and mutant (doxycycline+) cells.

[5] = test system: BT142 cells; assay: Cytotoxicity assay, LDL-supplemented sphere culture, low-grade glioma line (ATP); type: cell-based; settings: 1 µM; 7 days; LDL 5 µg/mL; BT142 (IDH1 mutant-type, R132H/-)
Procedure: U-87 cells (IDH1 wild-type) and BT142 cells derived from low-grade glioma (IDH1 mutant-type, R132H/-) were cultured for 7 days in LDL-supplemented sphere medium in the presence or absence of Compound 1 (1 µM). The LDL concentration was 5 µg/mL. After incubation, intracellular ATP levels were quantified as an indicator of cell viability, and cytotoxicity was compared between conditions.

## CC1(C)Oc2cc(Cl)ccc2[C@@H]2OCC3(CCN(CCn4ccnc4)CC3)C[C@H]21 [Compound 1, (4'aR,10'bR)-8'-chloro-1-[2-(1H-imidazol-1-yl)ethyl]-5',5'-dimethyl-4'a,10'b-dihydro-2'H,4'H,5'H-spiro[piperidine-4,3'-pyrano[3,2-c][1]benzopyran] diphosphate]
[1]; 180 mg QD and 240 mg QD
  stable disease: prolonged stable disease (SD) was observed
[1]; 360 mg QD and 480 mg daily (240 mg BID)
  discontinuation due to objective disease progression (RANO criteria): most patients discontinued administration of Compound 1 within two months
[1]; Dose Escalation Part, as of September 2023
  patients with preliminary antitumor activity (monotherapy): 4 patients
[1]; first patient with IDH-mutant WHO Grade III glioma, 20 mg QD
  tumor reduction (enhancing lesions, RANO criteria; reduction from baseline): 22%
[1]; patient with 22% tumor reduction
  time remained on study: 15 months
[1]; patient with 100% tumor reduction, as of September 2023
  time remained on study: 13 months
[1]; patient with 100% tumor reduction, cutoff April 21, 2024
  time remained on study: 20 months
[1]; patient with WHO grade III astrocytoma with IDH mutation, 120 mg, after more than one year of treatment
  response: complete response (CR)
[1]; second patient with IDH-mutant WHO Grade III glioma, 120 mg QD
  tumor reduction (enhancing lesions, RANO criteria; reduction from baseline): 100%
[2]
  antitumor effect in combination with bevacizumab: remarkably enhanced antitumor effect
[3]
  tumor growth inhibition as monotherapy: statistically significant inhibition of tumor growth compared with the nivolumab-treated group
[4]
  cytotoxicity in mutant versus wild-type cells: statistically-significantly stronger cytotoxicity in IDH1 R132H mutant cells compared with wild-type cells
[5]
  cytotoxicity: marked cytotoxicity
